Results: the supplement of paper PMC10307832

Legend:
Test in all cases: relative viability (nuclei count vs DMSO), 5 days (fraction); higher = more cells survive
[1] = compound: CCOC1=CC=CC=C1N=NC2=C(NN(C2=O)C3=NC(=CS3)C4=CC=CC=C4)C [BAM7] + C[C@@H](Oc1cc(-c2cnn(C3CCNCC3)c2)cnc1N)c1c(Cl)ccc(F)c1Cl [Crizotinib] (partner 1 µM)
Method in brief: (§1)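 Lung cancer cell lines were seeded in 1536-well plates and dosed by pin tool the next day, with either a single drug or a fixed anchor-drug dose combined with five library-drug doses (not always all listed) spaced in √10 steps. Five days later, one step fixed the cells and stained their nuclei (final 0.05% Triton X-100, 1% formaldehyde, 1 ug/ml Hoechst), and nuclei were counted on 4× images. Relative viability is the nuclei count in treated wells divided by the count in vehicle wells, and each value is the median of duplicate plates.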

[2] = compound: CCOC1=CC=CC=C1N=NC2=C(NN(C2=O)C3=NC(=CS3)C4=CC=CC=C4)C [BAM7] + Nc1nc2[nH]cc(CCc3ccc(C(=O)N[C@@H](CCC(=O)O)C(=O)O)cc3)c2c(=O)[nH]1 [Pemetrexed] (partner 0.2 µM)
Method in brief: as §1

[3] = compound: CCn1c(-c2nonc2N)nc2c(C#CC(C)(C)O)ncc(OC[C@H]3CCCNC3)c21 + COc1cccc2cc(-c3nc([C@H]4CC[C@H](C(=O)O)CC4)n4ncnc(N)c34)[nH]c12 [OSI-027] (partner 0.5 µM)
Method in brief: as §1

[4] = compound: CCOC1=CC=CC=C1N=NC2=C(NN(C2=O)C3=NC(=CS3)C4=CC=CC=C4)C [BAM7] + CCNC(=O)c1noc(-c2cc(C(C)C)c(O)cc2O)c1-c1ccc(CN2CCOCC2)cc1 [Luminespib] (partner 0.01 µM)
Method in brief: as §1

Row | Cell Line | relative viability ([1]; first compound 0.5 µM) | relative viability ([1]; first compound 5 µM) | relative viability ([1]; first compound 15.81 µM) | relative viability ([1]; first compound 50 µM) | relative viability ([2]; first compound 0.5 µM) | relative viability ([2]; first compound 5 µM) | relative viability ([2]; first compound 15.81 µM) | relative viability ([2]; first compound 50 µM) | relative viability ([3]; first compound 0.01 µM) | relative viability ([3]; first compound 0.03162 µM) | relative viability ([3]; first compound 0.1 µM) | relative viability ([3]; first compound 0.3162 µM) | relative viability ([3]; first compound 1 µM) | relative viability ([4]; first compound 0.5 µM) | relative viability ([4]; first compound 5 µM) | relative viability ([4]; first compound 15.81 µM) | relative viability ([4]; first compound 50 µM)
1 | HCC-78 | 0.339 | 0.334 | 0.324 | 0.308 | 0.929 | 0.913 | 0.963 | 0.863 | 0.405 | 0.386 | 0.325 | 0.331 | 0.341 | – | – | – | –
2 | HCC-366 | 0.552 | 0.654 | 0.471 | 0.641 | 0.107 | 0.117 | 0.125 | 0.115 | 0.963 | 0.834 | 0.45 | 1 | 0.838 | – | – | – | –
3 | HCC-827 | 0.917 | 0.873 | 0.932 | 0.839 | 0.27 | 0.25 | 0.28 | 0.247 | 0.74 | 0.769 | 0.698 | 0.639 | 0.667 | 0.582 | 0.646 | 0.672 | 0.651
4 | HOP-62 | 0.931 | 1.02 | 0.83 | 0.854 | 0.269 | 0.356 | 0.328 | 0.371 | 0.834 | 0.748 | 0.695 | 0.769 | 0.78 | 0.89 | 0.987 | 0.911 | 0.844
5 | IA-LM | 0.725 | 1.16 | 0.619 | 0.784 | – | – | – | – | – | – | – | – | – | – | – | – | –
6 | LC-2-ad | 0.488 | 0.518 | 0.46 | 0.463 | 0.297 | 0.277 | 0.293 | 0.29 | 0.71 | 0.804 | 0.871 | 0.681 | 0.857 | 1.06 | 1.26 | 0.951 | 1.03
7 | LCLC-97TM1 | 0.305 | 0.386 | 0.245 | 0.332 | 0.19 | 0.147 | – | 0.159 | 0.49 | 0.502 | 0.484 | 0.515 | 0.439 | 0.848 | 0.803 | 0.825 | 1.01
8 | LCLC-103H | 1.08 | 1.03 | 1.01 | 0.804 | 0.524 | 0.491 | 0.487 | 0.444 | 0.463 | 0.477 | 0.481 | 0.425 | 0.356 | 0.837 | 0.919 | 0.946 | 0.979
9 | LK-2 | 0.246 | 0.23 | 0.244 | 0.27 | 0.277 | 0.249 | 0.32 | 0.266 | 0.199 | 0.212 | 0.179 | 0.218 | 0.173 | 0.221 | 0.172 | 0.228 | 0.191
10 | LOU-NH91 | 0.722 | 0.801 | 0.719 | 0.705 | 0.347 | 0.436 | 0.392 | 0.346 | 0.718 | 0.694 | 0.706 | 0.625 | 0.594 | 0.38 | 0.336 | 0.332 | 0.347
11 | LU99A | 0.602 | 0.542 | 0.567 | 0.555 | 0.146 | 0.18 | 0.173 | 0.198 | 0.284 | 0.298 | 0.283 | 0.267 | 0.282 | 0.251 | 0.316 | 0.207 | 0.247
12 | NCI-H522 | – | – | – | – | 1.13 | 1.09 | 1.25 | 0.998 | 0.673 | 0.691 | 0.741 | 0.634 | 0.748 | 1.2 | 1.2 | 1.11 | 0.993
13 | NCI-H727 | 0.843 | 0.799 | 0.714 | 0.675 | – | – | – | – | 0.617 | 0.58 | 0.535 | 0.551 | 0.528 | 0.215 | – | 0.345 | 0.33
14 | NCI-H1299 | 0.98 | 1.01 | 1.01 | 0.946 | – | – | – | – | – | – | – | – | – | – | – | – | –
15 | NCI-H1395 | – | – | – | – | 0.856 | 0.91 | 0.857 | 1.07 | 0.496 | 0.597 | 0.552 | 0.556 | 0.555 | 0.713 | 0.929 | 0.514 | 0.673
16 | NCI-H1648 | – | – | – | – | 0.874 | 0.88 | 0.677 | 1.03 | – | 0.271 | 0.278 | 0.265 | 0.246 | – | – | – | –
17 | NCI-H1703 | 0.694 | 0.652 | 0.621 | 0.633 | – | – | – | – | – | – | – | – | – | – | – | – | –
18 | NCI-H1793 | – | – | – | – | 0.931 | 0.728 | 0.809 | 1.13 | 0.279 | 0.29 | 0.232 | 0.251 | 0.252 | 0.172 | 0.153 | 0.201 | 0.17
19 | NCI-H2342 | – | – | – | – | 0.677 | 0.712 | 0.734 | 0.72 | 0.598 | 0.617 | 0.517 | 0.546 | 0.594 | 0.691 | 0.726 | 0.768 | 0.735
20 | SW 900 | – | – | – | – | – | 0.44 | – | 0.505 | 0.452 | 0.321 | 0.507 | 0.435 | 0.562 | 0.19 | 0.208 | 0.158 | 0.185
